Measurements: patent publication US10906880B2, “Kind of isothiazole oxime ether-containing strobilurin derivatives and its preparation methods and application” (priority 2016, dated 2021)
Where two headings read alike, the source gives them in different places.

Columns and labels:
Alternaria solani = assay: Fungicide activity, mycelial growth inhibition on PDA plate; type: cell-based; conditions: Alternaria solani, read-out: Fungicidal activity inhibition, AS
Cercospora arachidicola = assay: as above; type: cell-based; conditions: Mycosphaerella arachidis, read-out: Fungicidal activity inhibition, CA
Physalospora piricola = assay: as above; type: cell-based; conditions: read-out: Fungicidal activity inhibition, PP
Botrytis cinerea = assay: as above; type: cell-based; conditions: Botrytis cinerea, read-out: Fungicidal activity inhibition, BC
Sclerotinia sclerotiorum = assay: as above; type: cell-based; conditions: Sclerotinia sclerotiorum, read-out: Fungicidal activity inhibition, SS
Rhizoctonia cerealis = assay: as above; type: cell-based; conditions: Ceratobasidium cereale, read-out: Fungicidal activity inhibition, RC
Pellicularia sasakii = assay: as above; type: cell-based; conditions: 50 μg/mL, P. sasakii; read-out: Fungicidal activity inhibition, PS
[1] = tested on: Phytophthora infestans (Mont) de Bary; assay: microbe, parasite or virus in culture; type: cell-based; conditions: for inhibition at 50 µg/mL: Phytophthora infestans, read-out: Fungicidal activity inhibition, PI, 50 μg/mL, P. infestans (Mont.) de Bary; for Fungicidal activity inhibition, PI: 50 μg/mL, P. infestans (Mont.) de Bary
TMV [2] = assay: Anti-TMV activity on tobacco, curative mode; type: in vivo, tobacco mosaic virus; conditions: for inhibition at 100 µg/mL: Tobacco mosaic virus, read-out: Anti-TMV activity inhibition, Curative effect
TMV [3] = assay: Anti-TMV activity on tobacco, protection mode; type: in vivo, tobacco mosaic virus; conditions: 100 μg/mL; for inhibition at 100 µg/mL: Tobacco mosaic virus, read-out: Anti-TMV activity inhibition, Protection effect
TMV [4] = assay: Anti-TMV activity on tobacco, inactivation mode; type: in vivo, tobacco mosaic virus; conditions: 100 μg/mL; for inhibition at 100 µg/mL: Tobacco mosaic virus, read-out: Anti-TMV activity inhibition, Inactivation effect
TMV [5] = assay: Anti-TMV activity on tobacco, induction mode (systemic acquired resistance); type: in vivo, tobacco mosaic virus; conditions: 100 μg/mL; for inhibition at 100 µg/mL: Tobacco mosaic virus, read-out: Anti-TMV activity inhibition, Induction effect

SMILES	inhibition at 50 µg/mL (Alternaria solani; 50 μg/mL, A. solani) [%]	inhibition at 50 µg/mL (Alternaria solani) [%]	inhibition at 50 µg/mL (Cercospora arachidicola; 50 μg/mL, C. arachidicola) [%]	inhibition at 50 µg/mL (Physalospora piricola; 50 μg/mL, P. piricola) [%]	inhibition at 50 µg/mL (Botrytis cinerea; 50 μg/mL, B. cinerea) [%]	inhibition at 50 µg/mL (Sclerotinia sclerotiorum; 50 μg/mL, S. sclerotiorum) [%]	inhibition at 50 µg/mL (Sclerotinia sclerotiorum) [%]	inhibition at 50 µg/mL (Rhizoctonia cerealis; 50 μg/mL, R. cerealis) [%]	inhibition at 50 µg/mL (Rhizoctonia cerealis) [%]	inhibition at 50 µg/mL (Pellicularia sasakii) [%]	inhibition at 50 µg/mL [1] [%]	inhibition at 100 µg/mL (TMV [2]; 100 μg/mL, tobacco) [%]	inhibition at 100 µg/mL (TMV [3]) [%]	melting point [°C]	inhibition at 50 µg/mL (Cercospora arachidicola) [%]	inhibition at 100 µg/mL (TMV [4]) [%]	also measured
CO/C=C(/C(=O)OC)c1ccccc1CO/N=C(\C)CC(=O)c1snc(Cl)c1Cl [CL04-04-B]	50	> 30	75	60.9	58.3	76.7	> 40	92.6	> 50	64.7	> 40	19.1 ± 2	> 40	103 to 105			inhibition at 50 µg/mL (Botrytis cinerea): > 45%
CO/N=C(/C(=O)NC1CC1)c1ccccc1CO/N=C(\C)c1snc(Cl)c1Cl [CL04-22C]	27.9		44	61.4	47.4	80	> 40	61	> 50	56.8		4.62 ± 0.55	23.6 ± 0.57	115 to 117	> 30	4.44 ± 0.85	inhibition at 50 µg/mL (Botrytis cinerea): > 45%; Fungicidal activity inhibition, PI [1]: 100%
C#CCNC(=O)/C(=N/OC)c1ccccc1CO/N=C(C)/C=C/c1snc(Cl)c1Cl [CL04-32B]	41	> 30	52	64.9	47.4	80	> 40	100		78.4			23.4 ± 1.02	92 to 93	> 30		inhibition at 50 µg/mL (Botrytis cinerea): > 45%; Fungicidal activity inhibition, PI [1]: 100%
CO/N=C(/C(=O)N[C@H](C)CSC)c1ccccc1CO/N=C(C)/C=C/c1snc(Cl)c1Cl [CL04-32F]	12.7		12.5	58	42.9	52.9	> 40	62	> 50	21.2	20		> 40			7.71 ± 1.42	
N#Cc1ccccc1NC(=O)c1snc(Cl)c1Cl [Isotianil, reference compound]																	Anti-TMV activity inhibition, Curative effect (TMV [2]; 100 μg/mL, tobacco): 27.31 ± 2.12%; Anti-TMV activity inhibition, Inactivation effect (TMV [4]): 20.77 ± 7.30%; Anti-TMV activity inhibition, Protection effect (TMV [3]): 24.80 ± 5.85%; Anti-TMV activity inhibition, Induction effect (TMV [5]): 44.44 ± 5.18%
CO/C=C(/C(=O)OC)c1ccccc1CO/N=C(\C)CC(O)c1snc(Cl)c1Cl (centres unmarked) [CL04-04-A]	85.7		75	73.9	100	90		100		52.9	> 40	19.1 ± 2.13		36 to 38			
CO/C=C(/C(=O)OC)c1ccccc1CO/N=C(\N)c1snc(Cl)c1Cl [CL04-03]	57.1	> 30	100	87	100	100		100		58.8	> 40	> 30	35.1 ± 0.39	105 to 107			
Nc1ccc(S(=O)(=O)Nc2nccs2)cc1 [SZG-7, reference compound]																	inhibition at 100 µg/mL (TMV [5]): 79 ± 2.27%
C#CCNC(=O)/C(=N/OC)c1ccccc1CO/N=C(\N)c1snc(Cl)c1Cl [CL04-25A]	8.2		20	19.3	42.1	46.7	> 40	65.8	> 50	46			> 40	106 to 108		0	Fungicidal activity inhibition, PI [1]: 100%
CO/N=C(/C(=O)OC)c1ccccc1CO/N=C(\N)c1snc(Cl)c1Cl [CL04-15C]	52.9	> 30	75	71.2	100	98		89.1	> 50	76.9		1.52 ± 0.62	25.1 ± 4.33	104 to 106			
Cc1ccc(NC(=O)c2snnc2C)cc1Cl [TDL, Tiadinil, reference compound]																	inhibition at 100 µg/mL (TMV [5]): 65 ± 2%
CO/N=C(/C(=O)OC)c1ccccc1CO/N=C/c1snc(Cl)c1Cl [CL04-15B]	100		91.7	62.1	100	90		98.2		69.2		27 ± 4.13	14.7 ± 2.73	88 to 90			
CO/C=C(/C(=O)OC)c1ccccc1CO/N=C/c1snc(Cl)c1Cl [CL03-50]	57.1	> 30	66.7	78.3	100	53.3	> 40	100		64.7	> 40	> 30	> 40	61 to 63	> 30		Anti-TMV activity inhibition, Curative effect (TMV [2]; 100 μg/mL, tobacco): 48.32 ± 5.88%
CSC(=O)c1cccc2nnsc12 [BTH, reference compound]																	Anti-TMV activity inhibition, Protection effect (TMV [3]): 78.10 ± 0.54%; Anti-TMV activity inhibition, Induction effect (TMV [5]): 78.00 ± 1.34%
CNCC(=O)N[C@@H](CO)C(=O)N[C@H]1[C@H](O)[C@@H](O)[C@H](n2ccc(N)nc2=O)O[C@@H]1C(N)=O [Ningnanmycin, reference compound]																	inhibition at 100 µg/mL (TMV [2]): 74.1 ± 2.04%
CO/C=C(/C(=O)OC)c1ccccc1CO/N=C(\C)c1snc(Cl)c1Cl [CL03-49]	42.9	> 30	66.7	78.3	100	80	> 40	100		64.7	> 40	> 30	35.9 ± 0.63	100 to 102	> 30		
CO/C=C(/C(=O)OC)c1ccccc1CO/N=C(C)/C=C/c1snc(Cl)c1Cl [CL04-06]	57.1	> 30	50		100	100		100		70.6		22.4 ± 6.85	> 40	101 to 103	> 30	22.2 ± 5.9	inhibition at 50 µg/mL (Physalospora piricola): 73.9%
NC(=O)c1ncn([C@@H]2O[C@H](CO)[C@@H](O)[C@H]2O)n1 [Ribavirin, reference compound]																78 ± 1	
CO/N=C(/C(=O)NCC(F)F)c1ccccc1CO/N=C(\C)c1snc(Cl)c1Cl [CL04-22A]	37.1	> 30	42.9	40.4	53.9	84	> 40	87.7	> 50	20		23.4 ± 5.58	30.7 ± 2.06	78 to 80	> 30	> 30	inhibition at 50 µg/mL (Botrytis cinerea): > 45%
